Reference: paper PMC4559881 (Molecular Neurodegeneration, 2015)
Values joined by “and” are separate entries in the source; they are usually repeats but may differ in a detail not shown here. Equal values may be shown once. Read-outs that look alike come from different tables or passages of the source.

How the values were obtained:
Aβ40 [1] = assay: Dog PK/PD study: Aβ40 in CSF and plasma; format: in vivo
Procedure: The mean (± SD) level of Aβ40 in the CSF prior to dosing was 5991 ± 1199 pg/ml (2 sampling times -24 h and -1 h, n = 7), and the predose plasma Aβ40 level was 261 ± 13 pg/ml (mean ± SD, n = 4, -1 h). […] All dogs responded strongly to the treatment, CSF Aβ40 was reduced by approximately 80 % from 12 to 48 h post dose and slowly returned to baseline (Fig. 3b). […] Furthermore, the available data were used for a calculation of the Aβ40 clearance rate from dog CSF.
(§1) Aβ38, 40 and 42 were determined using the electro-chemiluminescence immuno assay kits from Meso Scale Discovery (Rockville, MD, USA) in either singlet or triplex format. Samples and standards were prepared according to the manufactures protocols. The kit based on the antibody 4G8 was used for rat forebrain and CSF samples, and kits based on 6E10 were used for dog CSF or plasma and APP51/16 brain and CSF samples. Soluble APPα and sAPPβ from APP51/16 mice were determined from the 100000xg supernatant and analyzed with Meso Scale Discovery commercial kits. C-terminal fragments C83 and C99 were determined from Western blots. Forebrain homogenates dephosphorylated with lambda protein phosphatase as described and run on a 10 % Tris-bicine gel with 8 M urea. After transfer to Immobilon P membranes (Bio-Rad Bedford MA USA), bands were probed with APP C8 antibody (recognizing the C-terminus of APP) and detected with goat anti-mouse IgG Fab fragment AlexaFluor680 (Invitrogen). The same gel was used to visualize Aβ1-38, 1-40, and 1-42 using the N-terminal antibody beta1 and goat anti rabbit IgG IRdye 800CW (Odyssey). Full-length human APP was detected using an in house immunoassay based on the MSD ECL system as described.

[2] = Chronic treatment of mice: observations (mortality, hair colour, retina); format: in vivo; conditions: APP51/16 mice, 100 μmol/kg p.o. once daily
APP51/16 transgenic mice [3] = assay: Chronic 6-week treatment of APP51/16 mice: APP metabolites, Aβ deposition and neuroinflammation; format: in vivo, mouse; conditions: for CSF Aβ40 reduction / CSF Aβ42 reduction: 100 μmol/kg/d 6 weeks
Procedure: (§2) Frozen rodent forebrains were homogenized in 9 volumes of ice-cold Tris-buffered saline (pH 7.4) containing Complete protease inhibitor cocktail (Roche Diagnostics, Penzberg, Germany) using a Sonifier 450 (Branson) and stored in aliquots at -80 °C. Triton X-100 soluble Aβ was extracted by mixing 50 μl 2 % Triton X-100 with 50 μl homogenate, incubating for 15 min on ice with vortexing, followed by ultracentrifugation at 100000xg for 15 min. The clear supernatant was diluted to a final forebrain dilution of 1:100 and used for analysis. For the extraction of insoluble amyloid peptides, 50 μl forebrain homogenate was mixed with 117 μl of 100 % formic acid and stored on ice for 15 min with vortexing. Samples were neutralized with 950 μl 1 M Tris base, containing Complete protease inhibitor cocktail (Roche, Basle, Switzerland) and stored overnight at room temperature. The supernatant after 15 min centrifugation at 14000 rpm was used for analysis.
as §1

APP51/16 transgenic mice [4] = assay: as above; format: in vivo, mouse; conditions: relative to vehicle-treated mice
[5] = Dog PK/PD study: NB-360 exposure in blood and CSF; format: in vivo; conditions: male, Beagle, blood, po, 0.5 mg/kg p.o.
Procedure: Blood and CSF were sampled before treatment (at -24 and at -1 h) and at various time points after oral dosing, up to 168 h.
Brain samples were homogenized with 2 mM KH2PO4 buffer (approx. 1/2, w/v). […] The LLOQ ranged between 0.4 and 2 ng/mL in blood and 1.2 ng/g and 6 ng/g in brain.
Rat studies used male Charles River Sprague-Dawley rats of approx. 300 g body weight. Female transgenic APP51/16 mice (C57BL/6 background strain) were bred in-house. APP51/16 mice express human wild-type APP751 under the control of a Thy-1 expression cassette in brain neurons, and are characterized by mostly cortical, but few vascular amyloid-β deposits. […] Dosing was per os in a dose volume of 10 ml/kg for mice and 5 ml/kg for rats. […] Rodents were deeply anesthetized for CSF sampling from the cisterna magna, accessed through the exposed atlanto-occipital membrane. CSF was harvested into protein lo-bind Eppendorf tubes and frozen on dry ice. Animals were decapitated while anesthetized and blood and brain samples collected. Brains were briefly rinsed in PBS, quickly wet-dissected and samples frozen on a metal plate precooled on dry ice. All samples were stored at -80 ° C until analysis. The dog study was carried out at Charles River Laboratories, Canada. Male dogs were used with n = 4 per group. A cannula with an access port was implanted under anesthesia, to allow serial CSF sampling from the lateral ventricle. […]

SweAPP CHO cells = assay: Aβ40 release from Swedish human APP751 CHO cells; conditions: Cricetulus griseus, 24 h, read-out: IC50 Aβ40 release
Aβ40 [6] = assay: Rat PK/PD study: Aβ40 in forebrain and CSF after oral dosing; format: in vivo; conditions: for ED50: po, at 4 h, read-out: ED50 for inhibition of forebrain Aβ40
Procedure: Maximum activity was between 4 and 8 h, and Aβ40 concentrations returned to baseline after 24 h. Significant (>50 %) Aβ40 lowering was observed even at the lowest dose of 3 μmol/kg, and the effect saturated at higher doses.
as §2, §1

[7] = Pharmacokinetics after i.v. and oral application, mouse
Procedure: Pharmacokinetic studies used male Sprague Dawley rats, C57BL6 mice and Beagle dogs, obtained from Charles River (France, rodents) and Marshall (Italy, dogs). […] Blood was collected i.v., by sublingual bleeding or at sacrifice whereas a serial blood sampling allowed obtaining individual PK profiles in these species. Blood samples were taken between 5 min (intravenous) and 15 min (oral) up to 24 h (mice), 48 h (rat) and 408 h (dog).
The absorption and disposition parameters were estimated by a non-compartmental analysis of the mean blood concentration (n = 3 mice) or individual concentration (rats, dogs) versus time profile after oral and intravenous administration.

[8] = Octanol/water distribution coefficient; format: physicochemical; conditions: derived from apparent permeability across an artificial liquid membrane
Procedure: The octanol/water distribution coefficient was derived from the apparent permeability across an artificial liquid membrane. The PAMPA assay was done as described. MDCK cells overexpressing human p-glycoprotein (MDR1-MDCK cells, obtained from Prof. A. Berns, Netherlands Cancer Institute) were grown on HTS Multiwell plates, 1 μm pore size (Becton Dickinson). After formation of a tight monolayer, NB-360 was applied to either the upper or the lower chamber. After one hour, liquid was removed from the upper and lower chambers and analyzed by HPLC-MS. Apical-to-basolateral and basolateral-to-apical transport rates were calculated.

[9] = Dissociation constant (pKa); format: physicochemical
wtAPP CHO cells = assay: Release of APP metabolites from wild-type human APP751 CHO cells; conditions: Cricetulus griseus, 24 h
[10] = Blood pharmacokinetics and brain penetration in the rat, 30 μmol/kg oral; format: in vivo; conditions: for Cmax / AUC(0-t): male, Sprague Dawley, 30 umol/kg
Excerpt: In vivo blood pharmacokinetics and brain penetration was investigated in the rat.

[11] = approximate area under the effect curve, 0, 4, 24 h after last dose

## Cc1cc(C#N)cnc1C(=O)Nc1ccc(F)c([C@]2(C)CO[C@@](C)(C(F)(F)F)C(N)=N2)c1 [NB-360]
Aβ40 [1]; 1.1 μmol/kg (0.5 mg/kg)
  time to reach the maximum effect on CSF Aβ: around 12 h
Aβ40 [1]; 0.5 mg/kg p.o.
  time at which CSF Aβ40 reached baseline: about 120 h
Aβ40 [1]; 0.5 mg/kg p.o., after 1 h
  Plasma Aβ40 change: -42%
Aβ40 [1]; 0.5 mg/kg p.o., after 12 h
  Plasma Aβ40 change: -70%
Aβ40 [1]; 0.5 mg/kg p.o., from 12 to 48 h post dose
  CSF Aβ40 reduction: approximately 80%
Aβ40 [1]; Canis lupus familiaris, read-out: in vivo IC50 of NB-360 in blood for the reduction of Aβ40 in CSF, PK/PD modelling
  IC50: 59 ± 13 nM
Aβ40 [1]; from the values at 12 and 36 h
  Aβ reduction, approximate area under the effect curve over a 24 h period: 70-75%
[2]
  first appearance of grey hair patches: 2-3 weeks
[2]; 6 weeks
  mortality during treatment: Two out of 17 mice in the treatment group died
APP51/16 transgenic mice [3]; 4 h after the dose
  CSF Aβ40 reduction: > 90%
  CSF Aβ42 reduction: > 90%
APP51/16 transgenic mice [3]; 24 h
  CSF Aβ40 reduction: about 60%
  CSF Aβ42 reduction: about 60%
APP51/16 transgenic mice [3]; 4 h after the last dose
  C99 reduction in Triton TX-100 forebrain extract: about 80%
  sAPPβ reduction in Triton TX-100 forebrain extract: about 80%
APP51/16 transgenic mice [3]; 24 h after the last dose
  C99 reduction in Triton TX-100 forebrain extract: 57%
  sAPPβ reduction in Triton TX-100 forebrain extract: 70%
APP51/16 transgenic mice [3]; NB-360 group, Mean ± SEM, N 14
  Formic-acid extracted Aβ 1-38 in forebrain homogenate: 77.0 ± 24.9 pmol/g forebrain
  Formic-acid extracted Aβ 1-40 in forebrain homogenate: 197.3 ± 43.4 pmol/g forebrain
  Formic-acid extracted Aβ 1-42 in forebrain homogenate: 106.6 ± 20.9 pmol/g forebrain
APP51/16 transgenic mice [3]; approximate area under the effect curve after last dose
  Plasma Aβ40 reduction, AUEC24h: 70%
APP51/16 transgenic mice [3]; [11]
  CSF Aβ40 reduction, AUEC24h: approximately 75%
  CSF Aβ42 reduction, AUEC24h: approximately 75%
  CSF sAPPβ reduction, AUEC24h: approximately 75%
APP51/16 transgenic mice [3]; forebrain extract, 4 and 24 h
  C83 average increase above vehicle control: 50%
  sAPPα average increase above vehicle control: 50%
APP51/16 transgenic mice [3]; formic-acid extract
  Aβ 1-38, NB-360 group, change vs baseline: -33.5 % p = 0.39
  Aβ 1-38, NB-360 group, change vs vehicle: -68.0 % p = 0.015
  Aβ 1-40, NB-360 group, change vs baseline: -16.1 % p = 0.52
  Aβ 1-40, NB-360 group, change vs vehicle: -64.5 % p = 0.003
  Aβ 1-42, NB-360 group, change vs vehicle: -69.3 % p = 0.0006
APP51/16 transgenic mice [3]; irrespective of the deposit size
  number of Aβ deposits (large plaques, small plaques, granules) per 3 cortical sections: indistinguishable from baseline
APP51/16 transgenic mice [3]; mean ± SEM, p = 0.093 vs baseline, p <0.0001 vs vehicle
  total area of cortical region of interest stained positively for NT12: 0.209 ± 0.054%
APP51/16 transgenic mice [3]; relative to vehicle-treated mice
  number of Iba-1 positive cell clusters in the cortex: substantially lower
APP51/16 transgenic mice [4]
  number of GFAP positive cell clusters in the cortex: substantially lower
[5]
  concentration at 168 h: 23 ± 31 nM
SweAPP CHO cells
  IC50: 33 nM
Aβ40 [6]; 30 μmol/kg p.o., 4 h
  Aβ40 inhibition: 90.9% and ~ 90%
Aβ40 [6]; based on 4 h data, Fig. 2d
  Max effect (dose-response in brain): 91%
Aβ40 [6]; lowest dose 3 μmol/kg p.o.
  Aβ40 lowering: > 50%
Aβ40 [6]; converted dose
  ED50: 0.7 mg/kg
Aβ40 [6]
  ED50: 1.6 ± 0.25 µmol/kg
[7]; C57BL6, mouse, blood, iv, 2 umol/kg
  clearance: 16 mL/min/kg
[7]; C57BL6, mouse, blood, po, 6 umol/kg
  bioavailability: 37%
[7]; mouse, 2 μmol/kg i.v.
  Terminal half-life after i.v. application: 3.6 h
  Vol. of Distribution: 4.6 L/kg
[8]
  logP: 3.7
[9]
  pKa: 7.1
wtAPP CHO cells; read-out: IC50 Aβ40 release
  IC50: 3 nM
wtAPP CHO cells; read-out: IC50 Aβ42 release
  IC50: 3 nM
wtAPP CHO cells; read-out: IC50 sAPPβ release
  IC50: 4 nM
[10]; blood, corrected for nonspecific binding
  unbound AUC 0-24 h blood: 0.63 µM·h
[10]; brain, corrected for nonspecific binding
  unbound AUC 0-24 h brain: 0.54 µM·h
[10]; blood
  Cmax: 1620 nM
[10]; blood, read-out: AUC 0-24 h blood
  AUC(0-t): 10.2 µM·h
[10]; brain
  Cmax: 4010 nM
[10]; brain, read-out: AUC 0-24 h brain
  AUC(0-t): 23.6 µM·h
